Measured values published in ChEMBL document CHEMBL5604063, “ASAP - DENV-2 NS2B-NS3 protease fluorescence dose response” (2024).
pIC50: −log10 of the molar value. Where “and” joins values, the source holds several entries; their conditions need not be identical. Identical values can stand only once.

Experiments:
Genome polyprotein [1] = target: T1, Genome polyprotein (dengue virus type 2, UniProt P29990); format: functional, Thailand/16681/1984
Genome polyprotein [2] = target: T1, Genome polyprotein; format: functional, Thailand/16681/1984; remark: listed apart in the source

T1 sequence (P29990 1346-1475 limits assumed): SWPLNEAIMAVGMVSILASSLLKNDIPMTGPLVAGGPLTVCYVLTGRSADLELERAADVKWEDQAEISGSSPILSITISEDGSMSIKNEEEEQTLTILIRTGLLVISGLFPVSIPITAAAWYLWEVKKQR
T1 sequence (P29990 1476-2093 limits assumed): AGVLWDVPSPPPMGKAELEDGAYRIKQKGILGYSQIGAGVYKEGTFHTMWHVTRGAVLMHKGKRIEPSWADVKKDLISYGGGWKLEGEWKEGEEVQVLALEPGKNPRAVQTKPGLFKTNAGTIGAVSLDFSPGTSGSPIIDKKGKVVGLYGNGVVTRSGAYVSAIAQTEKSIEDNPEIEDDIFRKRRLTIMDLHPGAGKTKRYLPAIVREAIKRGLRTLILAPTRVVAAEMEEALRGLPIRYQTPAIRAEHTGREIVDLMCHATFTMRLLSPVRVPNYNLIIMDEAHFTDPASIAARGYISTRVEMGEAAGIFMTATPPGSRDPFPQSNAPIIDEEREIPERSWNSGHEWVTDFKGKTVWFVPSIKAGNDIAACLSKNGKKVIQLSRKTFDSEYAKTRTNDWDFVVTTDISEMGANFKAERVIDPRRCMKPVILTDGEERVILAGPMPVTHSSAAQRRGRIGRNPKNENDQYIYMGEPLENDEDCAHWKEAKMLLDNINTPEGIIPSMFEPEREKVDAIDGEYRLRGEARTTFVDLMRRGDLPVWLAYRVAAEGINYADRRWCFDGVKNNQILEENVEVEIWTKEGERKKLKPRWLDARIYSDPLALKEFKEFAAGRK

SMILES | pIC50 (Genome polyprotein [1]) | pIC50 (Genome polyprotein [2])
O=C(Nc1cc(Cl)cc([C@H]2[C@H](CO)[C@@H]2c2cccc(-c3nn[nH]n3)c2)c1)OCc1ccccc1 | 4.95 and 4.87 | 4.60
CC(C)[C@@H]1CC[C@@H](C)C[C@H]1C(=O)Nc1cccc(CN)c1 | < 4.00 | < 4.00
O=C(Nc1ccc2c(c1)CNC2)c1ccc2cc[nH]c2c1 | < 4.00 | < 4.00
NCc1cccc(NC(=O)c2cc(Cl)cc(C(N)=O)c2)c1 | < 4.00 | < 4.00
Cc1c(C(=O)Nc2cccc(C3CCNCC3)c2)cc(C2CC2)n1C | < 4.00 | < 4.00
NCc1cccc(Oc2ccc(S(=O)(=O)Nc3ccc(Cl)cc3C(=O)NCC(F)(F)F)cc2)c1 | < 4.00 | < 4.00
O=C(Nc1ccc2c(c1)CNC2)c1cc(Cl)cc2nccnc12 | 4.11 | 4.13
O=C(Cn1ccnc(N2CC[C@H](CO)C2)c1=O)NCc1cc[nH]n1 | < 4.00 | < 4.00
O=C(Nc1ccc2c(c1)CNC2)c1ccccn1 | < 4.00 | < 4.00
O=C(Nc1ccc2c(c1)CNC2)c1ncc(Cc2ccccc2)s1 | < 4.00 | < 4.00
CS(=O)(=O)N1CCC([C@@H](NC(=O)OCc2ccccc2)C(=O)Nc2cccc(CN)c2)CC1 | < 4.00 | < 4.00
CC(C)c1occ(C(F)(F)F)c1C(=O)Nc1cccc(CN)c1 | < 4.00 | < 4.00
Cc1c(C(=O)NCc2cccc(C3COC3)c2)cc(C2CC2)n1C | < 4.00 | < 4.00
O=C(Nc1ccc2c(c1)CNCC2)c1cc(Cl)cc2[nH]ncc12 | < 4.00 | < 4.00
CCc1cc(C(=O)Nc2cccc(-n3nn[nH]c3=O)c2)sc1-c1ccc(Cl)cc1 | 4.98 and 4.91 | 4.95 and 4.89
N[C@H]1Cc2ccc(NC(=O)c3cccc4c3CC(=O)N4)cc2C1 | 4.31 and 4.25 | 4.69
O=C(NCC(F)F)[C@H](Nc1ccc2c(c1)CNC2)c1cc(Cl)cc2ccoc12 | < 4.00 | < 4.00
O=Cc1cc(Cl)cc(NC(=O)OCc2ccccc2)c1 | < 4.00 | < 4.00
O=C(Nc1ccc2c(c1)CNC2)c1ccncc1 | < 4.00 | < 4.00
NCc1ccncc1NS(=O)(=O)c1ccc(Oc2ccccc2Cl)cc1 | < 4.00 | 4.43
O=C1Cc2ccc(NC(=O)c3cc(F)cc4[nH]ncc34)cc2N1 | < 4.00 | < 4.00

SMILES | pIC50 (Genome polyprotein [1]) | pIC50 (Genome polyprotein [2])
O=C(Nc1ccc2c(c1)CNC2)c1c(Br)ccc2[nH]ncc12 | < 4.00 | < 4.00
O=C(Nc1ccc2c(c1)CNC2)c1ccc2c(c1)NCCO2 | < 4.00 | < 4.00
Cc1c(C(=O)Nc2cccc(CN3CCCC3=O)c2)cc(C2CC2)n1C | < 4.00 | < 4.00
O=C(Nc1cc(-c2cccnc2)ccn1)c1coc(C2CC2)n1 | < 4.00 | < 4.00
Clc1cc([C@H](C#Cc2ccccc2)Nc2ccc3c(c2)CNC3)c2cn[nH]c2c1 | 4.05 | < 4.00
N[C@H]1CCCc2ccc(NC(=O)c3cc(Cl)cc(NC(=O)OCc4ccccc4)c3)cc21 | < 4.00 | < 4.00
CCn1ncc2c(C(=O)Nc3cccc(CN)c3)cc(C)nc21 | < 4.00 | < 4.00
NCc1cccc(NC(=O)c2nn(-c3ccc(Cl)c(F)c3)c3c2CCC3)c1 | < 4.00 | 4.14
CCNC(=O)Nc1cc(Cl)cc(C(=O)Nc2cccc(-n3nn[nH]c3=O)c2)c1 | < 4.00 | < 4.00
O=C1OCc2ccc(NC(=O)[C@H]3CNC4(CCCC4)C3)cc21 | < 4.00 | < 4.00
O=C(Nc1cc(Cl)cc(C(=O)NCC[C@H]2COCCN2)c1)OCc1ccccc1 | < 4.00 | < 4.00
CNC(=O)[C@H](Nc1ccc2c(c1)CNC2)c1cc(Cl)cc2c1OCC2 | < 4.00 | < 4.00
Cc1nc(C2(NC(=O)c3cccc4c3CC(=O)N4)CCC2)no1 | < 4.00 | < 4.00
N[C@H]1CCCc2ccc(NC(=O)c3cc(Cl)cc4[nH]ncc34)cc21 | < 4.00 | < 4.00
CC(=O)N1CCCc2cc(NC(=O)c3cc(C4CC4)n(C)c3C)ccc21 | < 4.00 | < 4.00
O=C(O)[C@H]1C[C@H](n2ccc(Cc3c[nH]c4ccc(Cl)cc34)n2)C1 | < 4.00 | < 4.00
Cc1cc(C(=O)Nc2ccc3c(c2)CNC3)cc2nc[nH]c12 | < 4.00 | < 4.00
Cc1ccc(Oc2ncccc2C#N)c(-c2ccc3[nH]c(C(=O)O)cc3c2)c1 | < 4.00 | 4.06
CSCCCNC(=O)[C@H](Nc1ccc2c(c1)CNC2)c1cc(Cl)cc(C2CC2)c1 | < 4.00 | < 4.00
NCc1cccc(NC(=O)c2cc(C(F)(F)F)nn2CC2CCC2)c1 | < 4.00 | < 4.00
NCCCc1ccnc(NC(=O)c2cc(C3CC3)[nH]n2)c1 | < 4.00 | < 4.00
